# Data: paper PMC7127602 (Bioorganic & Medicinal Chemistry, 2007)
# Target: SARS-CoV M^pro (Severe acute respiratory syndrome coronavirus, UniProt P0C6X7)
# Type: biochemical
row,SMILES,Increase in IC50 relative to compound 2
1,O=C(Oc1cncc(Cl)c1)c1ccc(-c2ccccc2[N+](=O)[O-])o1 [compound 4],threefold
2,O=C(Oc1cncc(Cl)c1)c1ccc(-c2cccc([N+](=O)[O-])c2)o1 [compound 5],eightfold
